The nature of this data set: Human HepG2 cell viability assay in 384 well format. The data set is classed as toxicity, cell-based. Conditions: HepG2 cells, read-out: Inhibition. Also on record: dose 125 nL, time 70.5 hour; concentration not given beside the values.
For `N#Cc1ccc(OC2CCN(CC(=O)NCC(F)(F)F)CC2)cc1`, the cytotoxicity at 70.5 h was -12.8%.

`CCc1nc(N)nc(N(C)Cc2nncn2CCOC)c1C`: the cytotoxicity at 70.5 h amounted to 11.8%. On to `CCc1n[nH]c(C2CN(CCS(C)(=O)=O)CCO2)n1` (configuration not stated), for which the cytotoxicity at 70.5 h is -0.712%. To `COc1ccc(C(=O)N2CC(c3ccncc3)C2)c(OC)c1OC` belongs -5.75%. With `Cc1cccc(-c2cccc(CC3(C(=O)O)CCOCC3)c2)c1` the figure was 9.91%; with `O=C(NCCN1CCCC1)c1nc2c(o1)CN(c1ncccn1)C2`, -1.07%. With `N#Cc1ccc(C(=O)NS(=O)(=O)c2ccc(C#N)c(Cl)c2)cc1` the figure was -8.83%; with `CC(c1cccs1)N(C)C(=O)c1cc(CN(C)Cc2ccccc2)on1` (configuration not stated), -4.76%; with `Cc1nc(C)c(Cc2nc(C3CC3)n[nH]2)c(=O)[nH]1`, -3.16%. Turning to `CCn1cnnc1CNC(=O)N1CCN(Cc2ccccc2)CC1`, the cytotoxicity at 70.5 h is -1.29%. For `CN(C)CCN1C[C@@H]2CN(C(=O)C3CCOC3)C[C@@H]2C1=O` (some centres not stated), the cytotoxicity at 70.5 h was 23.4%. Regarding `CN(C)C(=O)C1CCN(c2cncc(-n3cccn3)n2)CC1`, the cytotoxicity at 70.5 h amounted to 10.2%.

For `Cc1ncc(-c2ccnc(NCCc3ccc(F)cc3)n2)c(=O)[nH]1`, the cytotoxicity at 70.5 h was -12.9%. To `O=S(=O)(c1cccnc1)N1CCCCC1CCN1CCOCC1` (configuration not stated) belongs 23.1%; to `CN(C)c1nccnc1N1CC[C@@]2(O)CCNC[C@H]2C1`, 9.65%.

With `COC(=O)c1cc(NCc2cscn2)ccc1C`, the cytotoxicity at 70.5 h was -4.82%. With `Cc1csc(CNc2cnn(CC(F)(F)F)c2)n1` the figure was -2.55%; with `Cc1ccc(S(=O)(=O)Cc2noc([C@@H]3C[C@@H](O)CN3C(C)C)n2)cc1`, -8.79%; with `CC(C)n1nccc1CN1Cc2nccn2CC1c1ccccc1` (configuration not stated), -7.71%.

Consider `CN(C)CC1CN(Cc2coc(-c3cccs3)n2)CCO1` (configuration not stated), for which the cytotoxicity at 70.5 h came out at 1.06%. To `O=C(C1CC1)N1CC2(CCNCC2)c2cc(F)ccc21` belongs -11.1%; to `Cc1cccc(NC(=O)N2CCCn3cnc(CN(C)C(C)C)c3C2)c1`, 17.2%; to `CC(C)n1cc(CN(C)C[C@@H]2CCCN3CCCC[C@H]23)cn1`, -6.94%. To `COc1cc(NC2CCCNC2)cc(OC)c1` (configuration not stated) belongs 17.7%; to `COc1ccc2c(c1)C(C(=O)N(C)CCCc1cnn(C)c1)CC(=O)N2` (configuration not stated), -12.9%; to `CCCn1cc(NC(=O)c2cccc(CN3CC[C@H](O)C3)c2)nn1`, -11.9%.

Regarding `COCCC(C)NC(=O)N1CCSC(C)(C)C1` (configuration not stated), the cytotoxicity at 70.5 h was -10.1%.

With `Cc1nc(CNC(C(=O)N2CCOCC2)c2ccccc2)cs1` (configuration not stated), the cytotoxicity at 70.5 h is -6.01%. With `Cc1nn(CC(C)C)c(N(C)C)c1CNCc1cccnc1N(C)C` the figure was -13.5%; with `COc1ccc(C(=O)N(C)Cc2c(C)noc2C)cn1`, -4.2%; with `COCc1nc2nc(O)c3c(n2n1)NC(=O)CC3c1ccc(SC)cc1` (configuration not stated), 1.29%. On to `Cn1ccnc1-c1cn(CCc2nnc(N)s2)nn1`, for which the cytotoxicity at 70.5 h worked out at 43.6%.

`CCCC(=O)N(CCCN1CCOCC1)c1nc2c(C)ccc(Cl)c2s1`: the cytotoxicity at 70.5 h is -3.12%. With `COc1cc(CN2CCC(NC(=O)c3cccn3C)C2)cc(OC)c1` (configuration not stated) the figure was -7.95%. With `Cc1ccc(C)c(NC(=O)c2coc(C)n2)c1` the figure was -6.52%.

In the case of `CCOC(=O)c1n[nH]cc1-c1cncn1CCn1nc(C)c(C)c1C`, the cytotoxicity at 70.5 h is -6.65%. To `CN(Cc1ccc(F)cc1)C(=O)NCc1nnc2n1CCCCC2` belongs 33.6%; to `Cc1noc(NC(=O)c2ccc(Br)s2)n1`, 24.3%; to `CCc1nc(CN2CCN(C(=O)c3cnccn3)CC2)cs1`, -5.66%. To `Cc1nn(C)c(C)c1NC(=O)CN1CCc2c(nc(C(C)C)n2C)C1` belongs -10.5%; to `Nc1cc(-c2c[nH]nc2C2CCCN2S(=O)(=O)c2ccccc2)ccn1` (configuration not stated), -2.78%. To `CC(C)CC1(C(=O)NCc2nncn2C2CC2)CCC1` belongs 1.12%; to `CC(C)N(C)Cc1nnc2n1CCN(Cc1ccncc1)CC2`, -3.24%; to `CC(C)CN1CCCC12CCN(c1nncs1)C2` (configuration not stated), -4.38%.

Turning to `COc1ccccc1OCCNCCn1cccn1`, the cytotoxicity at 70.5 h is -10.7%. With `O=C(CNc1cc(F)ccc1OC(F)F)NCC(F)(F)F` the figure was 2.53%. Turning to `Cc1ccccc1N1CCN(C(=O)Cn2ccnc2)CC1=O`, the cytotoxicity at 70.5 h was 14.2%. To `CCc1nc(C)c(CN2CCCC(c3nn(C)c(=O)n3CC)C2)[nH]1` (configuration not stated) belongs -6.96%. As to `O=C(Cc1ccsc1)N1CCCC(c2n[nH]c3ncccc23)C1` (configuration not stated), the cytotoxicity at 70.5 h was -5.61%. To `COCCCNC(=O)Cn1c(-c2cccc(Cl)c2)nc(C)cc1=O` belongs 2.43%; to `O=C(Nc1cnn(CC(=O)N2CCCCO2)c1)c1ccccn1`, 2.98%.

For `COc1ccc(C(O)CNC(=O)NCc2csc(C)n2)cc1` (configuration not stated), the cytotoxicity at 70.5 h came to 27.2%. On to `Cc1noc([C@@H]2CCCN2C(=O)C2CCN(C(=O)C3CCC3)CC2)n1`, for which the cytotoxicity at 70.5 h came out at 10.6%. Turning to `CS(=O)(=O)NCC(=O)NC1CCc2nccn2C1` (configuration not stated), the cytotoxicity at 70.5 h is -7.92%. With `O=C(CCNCc1cc(O)c2cc(F)ccc2n1)N1CCCC1` the figure was -8.32%; with `O=C1OC2(CCN(C3CCCOC3)CC2)CN1CCc1ccccc1` (configuration not stated), 5.31%.

Regarding `N#Cc1ccccc1NC(=O)C1CN(C(=O)c2ccc3c(c2)OCO3)C1`, the cytotoxicity at 70.5 h is -7%.

`Cc1sc2nc(SC(C)c3nc(C(C)(C)C)no3)nc(N)c2c1C` (configuration not stated): the cytotoxicity at 70.5 h was 21.9%. With `CSCCN1CCC(NC(=O)c2cccc(C3CCCNC3)c2)CC1` (configuration not stated) the figure was -24.6%.

Consider `Cc1nc(CNCc2cccnc2Oc2ccc(C)c(F)c2F)c[nH]1`, for which the cytotoxicity at 70.5 h was found to be 0.762%. To `CSCC(C)(O)CNC(=O)c1cc(Br)ccc1Cl` (configuration not stated) belongs 16.5%; to `CC(C)(C)NC(=O)NC(=O)CN1C=Nc2ccccc2S1(=O)=O`, -8.6%. With `Cc1cc(C2CCC2)nc(NCC(C)(C)CO)n1`, the cytotoxicity at 70.5 h was -2.23%. Consider `CN(c1cccnn1)[C@@H]1CC[C@@H]2CN(Cc3ccccc3C(=O)O)C[C@@H]21`, for which the cytotoxicity at 70.5 h is -6.92%. For `CCN(Cc1cnn(C)c1)C[C@H]1CC[C@@H](Cc2ccc(CO)cc2)O1`, the cytotoxicity at 70.5 h was -3.31%. With `CNS(=O)(=O)Cc1ccccc1CNc1ccc(C#N)cn1` the figure was 22.4%. As to `Cc1ccc(N2CCC(C(=O)O)(n3ccc(C(C)C)n3)CC2)nn1`, the cytotoxicity at 70.5 h was -1.26%. `CCc1nnc2n1CC(CNCC1CCCC1)CC2` (configuration not stated): the cytotoxicity at 70.5 h is -1.75%. To `O=C1CC[C@@H](C(=O)N2CCc3[nH]nc(COc4cccc(Cl)c4)c3C2)N1` belongs -8.37%. With `CS(=O)(=O)c1cccc(C(N)c2ccc(F)c(F)c2)c1` (configuration not stated) the figure was -4.97%. With `Cn1ccnc(Sc2cccc(C#N)c2)c1=O` the figure was -4.29%. Turning to `Cn1cnc(-c2nc(C(=O)NCCN3CCOCC3)c3ccccn23)c1`, the cytotoxicity at 70.5 h was -2.81%.
